In article PMC8165160, “Substrate Specificities and Inhibition Pattern of the Solute Carrier Family 10 Members NTCP, ASBT and SOAT” (Frontiers in Molecular Biosciences, 2021):
Like-named read-outs stand apart in the source and are kept apart here.

Experiments:
SOAT [1] = target: T1, SOAT (Homo sapiens, UniProt Q3KNW5); assay: Transport inhibition in SOAT-HEK293 cells; assay type: cell-based; details: triterpenoid inhibitors, 10 min after 5 min preincubation
T1 construct: The full-length open reading frames of NTCP, ASBT, and SOAT were cloned; expressed in transfected cells; host or cells: Flp-In T-REX HEK293 (SOAT-HEK293), tetracycline-induced
T1 sequence (Q3KNW5 1-377): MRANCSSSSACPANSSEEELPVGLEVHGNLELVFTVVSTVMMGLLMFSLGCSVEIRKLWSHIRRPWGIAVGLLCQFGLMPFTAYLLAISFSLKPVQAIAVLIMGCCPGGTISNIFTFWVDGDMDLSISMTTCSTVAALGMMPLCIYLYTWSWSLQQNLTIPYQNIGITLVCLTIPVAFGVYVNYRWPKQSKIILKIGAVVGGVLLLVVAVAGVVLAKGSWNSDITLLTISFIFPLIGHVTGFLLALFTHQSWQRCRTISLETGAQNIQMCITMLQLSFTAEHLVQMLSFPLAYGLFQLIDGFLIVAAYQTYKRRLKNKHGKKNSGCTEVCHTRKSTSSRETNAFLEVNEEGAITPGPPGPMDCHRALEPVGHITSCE
Procedure: (§1) Cells were washed three times with PBS and were preincubated with the respective inhibitor in sodium transport buffer for 5 min at 37°C. Uptake was initiated by adding the respective radiolabeled substrate to the well and incubating for a fixed time as indicated in the figures at 37°C. Transport was terminated by removing the transport buffer and washing five-times with ice-cold PBS. Cell monolayers were lysed in 1 N NaOH with 0.1% SDS and the cell-associated radioactivity and protein content was determined as described above. For uptake inhibition with the myr-preS1 peptide the sodium transport buffer contained additionally MEM-amino acid solution (ThermoFisher) at 1:50 dilution.
(§2) All transport or inhibition graphs were generated with GraphPad Prism 6.0 (GraphPad). Determination of IC50 values was done by nonlinear regression analysis using the equation log (inhibitor) vs. response settings. If not stated otherwise in the legends all data represent means ± SD of at least triplicate determinations of representative experiments.
(§3) FIGURE 3 Inhibition of NTCP, ASBT, and SOAT with substrate inhibitors. Transport of [^3H]TC, [^3H]TLC, and [^3H]DHEAS was analyzed in NTCP-HEK293, ASBT-HEK293, and SOAT-HEK293 cells in the presence of the substrate inhibitors TC, TLC, and DHEAS at increasing concentrations ranging from 100 nM till 1000 µM. After 5 min of preincubation with the respective inhibitory compound, 200 nM [^3H]TLC, [^3H]TC or [^3H]DHEAS were added for additional 1 min and the cell lysates were analyzed by liquid scintillation counting. Unspecific uptake of HEK293-FlpIn cells was set to 0%. Carrier-specific uptake without inhibitor was set to 100%.
(§4) Transport of [^3H]TC, [^3H]TLC, and [^3H]DHEAS was analyzed in NTCP-HEK293, ASBT-HEK293, and SOAT-HEK293 cells in the presence of different supposed non-substrate triterpenoid inhibitors as indicated at increasing concentrations ranging from 100 nM till 1000 µM. After 5 min of preincubation with the respective inhibitory compound, 1 µM [^3H]TLC, [^3H]TC or [^3H]DHEAS were added for additional 10 min at 37°C and the cell lysates were analyzed by liquid scintillation counting. Experiments performed without inhibitor were set to 100%. Means of negative controls were subtracted to calculate net transport rates (expressed as percentage of control). Data represent means ± SD of quadruplicate determinations of representative experiments.

NTCP [2] = target: T2, NTCP (Homo sapiens, UniProt Q14973); assay: Transport inhibition in NTCP-HEK293 cells
T2 sequence (Q14973 1-349): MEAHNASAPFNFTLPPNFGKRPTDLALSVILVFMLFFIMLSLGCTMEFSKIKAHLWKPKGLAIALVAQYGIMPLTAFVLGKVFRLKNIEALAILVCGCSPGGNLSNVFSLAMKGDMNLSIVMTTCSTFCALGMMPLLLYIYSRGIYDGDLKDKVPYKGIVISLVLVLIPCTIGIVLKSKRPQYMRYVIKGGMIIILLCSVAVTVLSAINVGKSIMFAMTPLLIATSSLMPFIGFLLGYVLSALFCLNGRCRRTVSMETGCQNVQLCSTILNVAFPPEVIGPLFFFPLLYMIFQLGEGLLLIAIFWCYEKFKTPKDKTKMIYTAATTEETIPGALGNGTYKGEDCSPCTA

ASBT = target: T3, ASBT (Homo sapiens, UniProt Q12908); assay: Transport inhibition in ASBT-HEK293 cells; assay type: cell-based; details: triterpenoid inhibitors, 10 min after 5 min preincubation
T3 construct: The full-length open reading frames of NTCP, ASBT, and SOAT were cloned; expressed in transfected cells; host or cells: Flp-In T-REX HEK293 (ASBT-HEK293), tetracycline-induced
T3 sequence (Q12908 1-348): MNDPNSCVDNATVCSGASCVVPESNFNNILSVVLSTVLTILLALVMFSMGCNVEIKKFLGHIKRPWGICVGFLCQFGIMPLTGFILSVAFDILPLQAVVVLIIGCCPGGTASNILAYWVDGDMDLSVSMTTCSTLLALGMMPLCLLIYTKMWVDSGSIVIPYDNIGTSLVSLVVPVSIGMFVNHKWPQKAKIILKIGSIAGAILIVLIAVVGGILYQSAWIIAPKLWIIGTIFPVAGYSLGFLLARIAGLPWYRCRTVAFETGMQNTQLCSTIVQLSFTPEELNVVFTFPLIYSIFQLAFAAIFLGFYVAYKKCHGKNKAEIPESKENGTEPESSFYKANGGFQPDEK
Procedure: as §1, §2, §3, §4

HDV = details: in vitro; ref Kirstgen et al., 2020; cited from earlier work
NTCP [3] = target: T2, NTCP; assay: Substrate screening: sodium-dependent uptake of radiolabeled compounds in NTCP-HEK293 cells; assay type: cell-based; set-up: The full-length open reading frames of NTCP, ASBT, and SOAT were cloned; expressed in transfected cells; host or cells: Flp-In T-REX HEK293 (NTCP-HEK293), tetracycline-induced; details: radiolabeled steroid compounds 200 nM, 10 min, NTCP-HEK293, vs sodium-free control
Procedure: (§5) Stably SLC10 transporter transfected NTCP-HEK293, ASBT-HEK293, SOAT-HEK293 cells and the HEK293-FlpIn maternal cell line were seeded on 24-well plates (if not stated otherwise for individual assays). Well plates were coated with poly-D-lysine prior to seeding of 125,000 cells per well. Cells were grown with 1 ml of standard medium per well with or without tetracycline ([…]) for 72 h to induce carrier expression before respective assays were started. HEK293-FlpIn cells were cultivated with standard medium and served as control.
(§6) Uptake experiments were initiated by replacing the preincubation buffer by 500 μL transport buffer containing the radiolabeled test compound and were performed at 37°C. Transport was terminated by removing the transport buffer and washing five-times with ice-cold PBS. Cell monolayers were lysed in 1 N NaOH with 0.1% SDS and the cell-associated radioactivity was determined by liquid scintillation counting.
(§7) FIGURE 1 Comparative substrate screening for bile acids and sulfated steroids in NTCP-, ASBT-, and SOAT-HEK293 cells. Transport assays were performed with the indicated substrates in NTCP-HEK293, ABST-HEK293, SOAT-HEK293, and HEK293-FlpIn cells. Cells were washed and equilibrated with Na^+-containing transport buffer (filled bars) or with Na^+-free transport buffer (open bars) at 37°C. For uptake, cells were incubated with radiolabeled steroid compounds at a final concentration of 200 nM in Na^+-containing or Na^+-free transport buffer for 10 min. Radiolabeled bile acids were used at 1 µM concentrations and transport was analyzed over 30 min. HEK293-FlpIn cells served as additional controls. After the indicated time intervals, cells were washed with ice-cold PBS, lysed and subjected to liquid scintillation counting. […] 3-OH, trihydroxylated BAs; 2-OH, dihydroxylated BAs; 1-OH, monohydroxylated BAs.

NTCP [4] = target: T2, NTCP; assay: Transport kinetics (concentration-dependent uptake) in NTCP-HEK293 cells; assay type: cell-based; set-up: The full-length open reading frames of NTCP, ASBT, and SOAT were cloned; expressed in transfected cells; host or cells: Flp-In T-REX HEK293 (NTCP-HEK293), tetracycline-induced; details: uptake via NTCP, 1 min, 37°C
Procedure: as §6
FIGURE 2 NTCP, ASBT, and SOAT transport kinetics. Concentration-dependent uptake was analyzed in NTCP-HEK293, ASBT-HEK293, and SOAT-HEK293 cells for the indicated substrates at increasing substrate concentrations. Stably transfected HEK293 cells were pretreated with 1 μg/ml tetracycline to induce carrier expression. HEK293-FlpIn cells were used as control. Uptake was analyzed for 1 min at 37°C. Afterward, the medium was removed and each cell monolayer was washed and processed to determine the protein content and cell-associated radioactivity. Specific uptake was calculated by subtracting non-specific uptake of the HEK293-FlpIn control cells (open squares) from uptake into carrier-overexpressing HEK293 cells (filled squares) and is shown by broken lines. The values represent means ± SD of duplicate experiments, each with triplicate determinations (n = 6).

SOAT [5] = target: T1, SOAT; set-up: method as in Geyer et al. (2007); details: uptake via SOAT, same SOAT-HEK293 cell line; ref Geyer et al. (2007); cited from earlier work
SOAT [6] = target: T1, SOAT; assay: Substrate screening: sodium-dependent uptake of radiolabeled compounds in SOAT-HEK293 cells; assay type: cell-based; details: radiolabeled steroid compounds 200 nM, 10 min, SOAT-HEK293, vs sodium-free control
Procedure: as §5, §6, §7

[7] = 1 µM [3H]DHEAS, read-out: SOAT IC50, substrate [3H]DHEAS
[8] = 1 µM [3H]TLC, read-out: SOAT IC50, substrate [3H]TLC
[9] = NTCP IC50, substrate [3H]TC, triterpenoid inhibitors, 1 µM [3H]TC, 10 min after 5 min preincubation
[10] = NTCP IC50, substrate [3H]TLC, triterpenoid inhibitors, 1 µM [3H]TLC, 10 min after 5 min preincubation
[11] = 1 µM [3H]TC, read-out: ASBT IC50, substrate [3H]TC
[12] = 1 µM [3H]TLC, read-out: ASBT IC50, substrate [3H]TLC

| Compound | IC50 (SOAT [1]; [7]) [µM] | IC50 (SOAT [1]; [8]) [µM] | IC50 (NTCP [2]; [9]) [µM] | IC50 (NTCP [2]; [10]) [µM] | IC50 (ASBT; [11]) [µM] | IC50 (ASBT; [12]) [µM] | anti-HDV activity in vitro (HDV) | Transport activity grading NTCP (mean uptake) (NTCP [3]) | Apparent K m (NTCP [4]) [µM] | V max (NTCP [4]) [pmol/mg protein/min] | Apparent K m (SOAT [5]) [µM] | V max (SOAT [5]) [pmol/mg protein/min] | Transport activity grading SOAT (mean uptake) (SOAT [6]) | also measured |
| --- | --- | --- | --- | --- | --- | --- | --- | --- | --- | --- | --- | --- | --- | --- |
| C=C(C)[C@@H]1CC[C@]2(CO)CC[C@]3(C)[C@H](CC[C@@H]4[C@@]5(C)CC[C@H](OC(=O)/C=C/c6ccc(O)c(O)c6)C(C)(C)[C@@H]5CC[C@]43C)[C@@H]12 [3-O-Caffeoyl betulin] | 301 | 37.8 | 129 | 2.1 | 499 | 99.7 |  |  |  |  |  |  |  | IC50 (NTCP [2]; NTCP IC50, substrate [3H]DHEAS, triterpenoid inhibitors, 1 µM [3H]DHEAS, 10 min after 5 min preincubation): 49.1 µM |
| C=C(C)[C@@H]1CC[C@]2(CO)CC[C@]3(C)[C@H](CC[C@@H]4[C@@]5(C)CC[C@H](O)C(C)(C)[C@@H]5CC[C@]43C)[C@@H]12 [Betulin] |  |  |  |  |  |  |  |  |  |  |  |  |  | IC50 (SOAT [1]; SOAT IC50, substrate [3H]DHEAS, 1 µM [3H]DHEAS): 912 µM; IC50 (SOAT [1]; SOAT IC50, substrate [3H]TLC, 1 µM [3H]TLC): 50.1 µM; IC50 (ASBT; ASBT IC50, substrate [3H]TC, 1 µM [3H]TC): > 1000 µM; IC50 (ASBT; ASBT IC50, substrate [3H]TLC, 1 µM [3H]TLC): 192 µM |
| C=C(C)[C@@H]1CC[C@]2(C(=O)O)CC[C@]3(C)[C@H](CC[C@@H]4[C@@]5(C)CC[C@H](O)C(C)(C)[C@@H]5CC[C@]43C)[C@@H]12 [Betulinic acid] | 1.2 | 9.5 |  |  | > 1000 | 193 | anti-HDV activity |  |  |  |  |  |  |  |
| C[C@]12CC[C@@H]3c4ccc(OS(=O)(=O)O)cc4CC[C@H]3[C@@H]1CCC2=O [E1S, Estrone-3-sulfate] |  |  |  |  |  |  |  | ++ (“++” for values between 10 and 100) | 57.6 ± 11.3 | 2367 ± 170.8 | 12.0 ± 2.3 | 585 ± 34 | + (Mean uptake “+” for values below 10) |  |
| C=C(C)[C@@H]1CC[C@]2(C)CC[C@]3(C)[C@H](CC[C@@H]4[C@@]5(C)CCC(=O)C(C)(C)[C@@H]5CC[C@]43C)[C@@H]12 [Lupenone] | 665 | 122 | 240 | 11.8 | > 1000 | > 1000 | anti-HDV activity |  |  |  |  |  |  | IC50 (NTCP [2]; NTCP IC50, substrate [3H]DHEAS): > 1000 µM |
| Pregnenolone sulfate [PREGS] |  |  |  |  |  |  |  | +++ (“+++” for values above 100 pmol/mg protein/10 min for sulfated steroid hormones) | 8.8 ± 2.1 | 1036 ± 69.1 | 11.3 ± 3.0 | 2168 ± 134 | +++ (“+++” for values above 100 pmol/mg protein/10 min for sulfated steroid hormones) |  |
